Experimental data taken from patent publication US5734081A, “Arylthio compounds” (Warner-Lambert Company, priority 1995, dated 1998).

Experiments:
HIV-1VIHU = assay: Anti-HIV activity, clinical isolate HIV-1VIHU in PBL; type: cell-based; conditions: Human immunodeficiency virus 1
Experimental: (§1) The compounds of the invention were also evaluated against various other HIV strains and cell lines utilizing the assay methodology described above. The compounds were additionally evaluated against clinical isolates of HIV strains.

HIV-1A17 [1] = assay: Anti-HIV activity, HIV-1A17 in MT-4 cells; type: cell-based; conditions: Human immunodeficiency virus 1, MT4
Experimental: as §1

HIV-1 [2] = assay: CEM cell assay, anti-HIV-1 activity; type: cell-based; conditions: Human immunodeficiency virus 1, CCRF-CEM, HIV-1, 6 or 7 days, read-out: EC50 (Effective Concentration which protects cells from viral cytopathic effects)
Outline: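 CEM T4 lymphocytes infected with HIV at virus:cell ratio ~0.05, then treated with half-log10 dilutions of compound from DMSO stock and incubated 6 or 7 days at 37° in 5% CO2. Protection from virus-induced cell killing was read by XTT formazan absorbance and microscopy versus drug-treated noninfected cells and untreated controls.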

HIV-1A17 [3] = assay: Anti-HIV activity, HIV-1A17 in MT-2 cells; type: cell-based; conditions: Human immunodeficiency virus 1, MT2
Experimental: as §1

HIV-16R = assay: Anti-HIV activity, HIV-16R in MT-4 cells; type: cell-based, HIV-1; conditions: Human immunodeficiency virus 1, MT4
Experimental: as §1

HIV-1WEIO = assay: Anti-HIV activity, clinical isolate HIV-1WEIO in PBL; type: cell-based; conditions: Human immunodeficiency virus 1
Experimental: as §1

HIV-1 [4] = assay: HIV H9 cell assay, anti-HIV-1 activity; type: cell-based; conditions: Human immunodeficiency virus 1, H9, 168 h, read-out: EC50 (Effective Concentration which protects cells from viral cytopathic effects)
Excerpt: Another test system utilized to evaluate the invention compounds is called HIV H9 assay. The HIV H9 cell assay measures the inhibitor concentration required to suppress HIV-1 virus replication. In this system, viral growth occurs through multiple rounds of the life-cycle. Any suppression of the replication kinetics results in a geometric decrease in virus production. As a result, this assay is a sensitive means of measuring the ability of a compound to inhibit HIV-1 viral replication.
The H9 T-cell line is batch infected with HIV virus at an M0I of 0.01. After 2 hours absorption, the cells are washed, resuspended in RPMI-1640/10% fetal calf serum, and seeded at […] of a 96-well plate. A duplicate plate of uninfected H9 cells is prepared for the cytotoxicity assay. Drugs are serially diluted 1/3.16 in DMSO, transferred to media at an 8× concentration, and then added to the cultures in triplicate. The final DMSO concentration of 0.002 (0.2%).
Viral production is measured by RT assay and cytotoxicity is measured by XTT assay at 7 days post-infection. The RT assay is performed as a modification of Borroto-Esoda and Boone, J. Virol., 1991;65:1952-1959 and quantitated using a Molecular Dynamics Phosphoimager with Imagequant software. The XTT assay is performed as a modification of Roehm, et al., J. Immuno. Methods., 1991;142:257-265 and quantitated using a molecular Devices Thermomax plate reader with Softmax software.
Data is electronically transferred to a Microsoft Excell spreadsheet for analysis. The RT assay values equivalent to 50% and 90% inhibition of virus production are calculated from the untreated controls. The concentrations of inhibitor required to produce these values (IC50 and IC90) are interpolated from data points flanking these RT activities. The XTT assay values equivalent to 50% cytotoxicity are calculated from the untreated controls. The concentrations of inhibitor required to produce this value are interpolated from data points flanking these XTT values.

| SMILES | EC50 (HIV-1VIHU) | EC50 (HIV-1A17 [1]) | EC50 (HIV-1 [2]) | EC50 (HIV-1A17 [3]) | EC50 (HIV-16R) | EC50 (HIV-1WEIO) | EC50 (HIV-1 [4]) |
| --- | --- | --- | --- | --- | --- | --- | --- |
| NS(=O)(=O)c1ccc(NC(=O)c2ccccc2SSc2ccccc2C(=O)Nc2ccc(S(N)(=O)=O)cc2)cc1 [Example 1] | 3600 nM | 600 nM | 2900 nM | 600 nM | 1900 nM | 3500 nM | 700 nM |
| CC(=O)Nc1ccc(SSc2ccc(NC(C)=O)cc2C(N)=O)c(C(N)=O)c1 [Example 9, 2,2'-Dithiobis(5-acetylamino)benzamide] | 5200 nM | 2400 nM | 5200 nM | – | – | 7500 nM | 1700 nM |
